Results from paper PMC5175396, “Cytotoxicity of Plumbagin, Rapanone and 12 other naturally occurring Quinones from Kenyan Flora towards human carcinoma cells” (BMC Pharmacology & Toxicology, 2016).

Legend:
[1] = tested on: MCF-7 breast adenocarcinoma cells; assay: Neutral red (NR) uptake cytotoxicity assay, MCF-7; assay type: cell-based, human; details: for IC50: Homo sapiens, MCF7, 72 h, neutral red assay, 72 h incubation, read-out: IC50 MCF-7; for selectivity index MCF-7: IC50 in CRL2120 normal fibroblasts divided by IC50 in MCF-7
Excerpt: (§1) Six human cancer cell lines and one normal cell line were used in this study. They included A549 human non-small cell lung cancer (NSCLC) cell line, obtained from the Institute for Fermentation, Osaka (IFO, Japan) and provided by Prof. Dr. Tansu Koparal (Anadolu University, Eskisehir, Turkey), SPC212 human mesothelioma cell line obtained from American Type Culture Collection (ATCC) and provided by Dr. Asuman Demiroğlu Zergeroğlu (Gebze Technical University, Kocaeli, Turkey), DLD-1 colorectal adenocarcinoma cell lines obtained from ATCC (CCL-221), Caco2 colorectal adenocarcinoma cells (ATCC, HTB-37) obtained from the ŞAP Institute of Turkey (Ankara), HepG2 hepatocarcinoma cells (ATCC, HB-8065) and MCF-7 breast adenocarcinoma cells (ATCC, HTB-22) were provided by Prof. Dr. Tansu Koparal (Anadolu University, Eskisehir, Turkey). The normal CRL2120 human skin fibroblasts were obtained from ATCC [CCD1094Sk (ATCC, CRL-2120)]. The cells were maintained as a monolayer in DMEM medium (Sigma-aldrich, Munich, Germany) medium supplemented with 10% fetal calf serum and 1% penicillin (100 U/mL)-streptomycin (100 μg/mL) in a humidified 5% CO2 atmosphere at 37 °C.
(§2) The cytotoxicity of samples was performed by NR uptake assay as previously described. This method is based on the ability of viable cells to incorporate and bind the supravital dye NR in the lysosomes. The procedure is cheaper and more sensitive than other cytotoxicity tests. […] Briefly, cells were detached by treatment with 0.25% trypsin/EDTA (Invitrogen) and an aliquot of 1 × 10^4 cells was placed in each well of a 96-well cell culture plate […]. The cells were allowed to attach overnight and subsequently treated with different concentrations of the 14 compounds. Each of the studied samples was immediately added in varying concentrations in additional 100 μL of culture medium to obtain a total volume of […]/well. After 72 h incubation in humidified 5% CO2 atmosphere at 37 °C, the medium was removed and 200 μL fresh medium containing 50 μg/mL NR was added to each well and incubation continued for an additional 3 h at 37 °C in 5% CO2 atmosphere. The dye medium was then removed and each well was then washed rapidly with 200 μL phosphate buffer saline (PBS) followed by addition of 200 μL of acetic acid-water-ethanol in water (1:49:50). The plates were kept for 15 min at room temperature to extract the dye and then shaken for a few minutes on a GFL 3012 shaker (Gesellschaft für Labortechnik mbH, Burgwedel, Germany). Absorbance was measured on ELx 808 Ultra Microplate Reader (Biotek) equipped with a 540 nm filter. Each assay was done at least three times, with three replicates each. The viability was evaluated based on a comparison with untreated cells. The IC50 values represent the sample’s concentrations required to inhibit 50% of cell proliferation and were calculated from a calibration curve by linear regression using Microsoft Excel.

[2] = tested on: DLD-1 colorectal adenocarcinoma cell lines; assay: Neutral red (NR) uptake cytotoxicity assay, DLD-1; assay type: cell-based, human; details: for IC50: Homo sapiens, DLD-1, neutral red assay, 72 h incubation, read-out: IC50 DLD-1
Excerpt: as §1, §2

[3] = tested on: A549 human non-small cell lung cancer (NSCLC) cell line; assay: Neutral red (NR) uptake cytotoxicity assay, A549; assay type: cell-based; details: for IC50: Homo sapiens, A549, 72 h, neutral red assay, 72 h incubation; for selectivity index A549: IC50 in CRL2120 normal fibroblasts divided by IC50 in A549
Excerpt: as §1
as §2, with “lysosomes.” for “lysosomes. The procedure is cheaper and more sensitive than other cytotoxicity tests.”

MCF-7 cells = assay: Measurement of reactive oxygen species (ROS), DCFH-DA; assay type: cell-based, human; details: at IC50, 24 h
Description: This is a cell-based assay for measuring hydroxyl, peroxyl, or other reactive oxygen species activity within a cell. The assay employs the cell-permeable fluorogenic probe 2′,7′-dichlorodihydrofluorescin diacetate (DCFH-DA). DCFH-DA is diffused into cells and is deacetylated by cellular esterases to non-fluorescent 2′,7′-dichlorodihydrofluorescin (DCFH), which is rapidly oxidized to highly fluorescent 2′,7′-dichlorofluorescein (DCF) by ROS. […] After addition of 100 μL 1× DCFH-DA/DMEM solution to cells and incubation at 37 °C for 30–60 min, the fluorescence was measured using SpectraMax® M5 Microplate Reader (Molecular Devices, Biberach, Germany) at 480/530 nm. All experiments were performed at least in triplicate.

Structure (SMILES)	IC50 [1]	selectivity index MCF-7 [1]	IC50 [2]	selectivity index DLD-1 ([2]; IC50 in CRL2120 normal fibroblasts divided by IC50 in DLD-1)	IC50 [3]	selectivity index A549 [3]	increase in ROS levels as compared with non-treated cells (MCF-7 cells)
CCCCCCCCCCCCCC1=C(O)C(=O)C=C(O)C1=O [Compound 9, 2,5-dihydroxy-3-tridecyl-2,5-cyclohexadiene-1,4-dione]	16.9 ± 4.65 µM	5.62	46.6 ± 5.38 µM	2.04	27.4 ± 1.46 µM	3.48	less than 2 fold
CC1=CC(=O)c2c(O)cccc2C1=O [Compound 4, 5-hydroxy-2-methyl-1,4-naphthalenedione]	0.06 ± 0.01 µM	1127.67	0.98 ± 0.11 µM		1.14 ± 0.02 µM	59.35	more than 3 fold
